Read-outs that look alike come from different tables or passages of the source.
What was measured:
[1] = test system: MV4-11 cells, human B-myelomonocytic leukemia; experiment: Leukemia cell line activity assay (Cell Counting Kit-8, 5 days), MV4-11
Procedure: (§1) Compounds of the invention were evaluated for activity against the leukemia cell lines THP-1, EOL-1 and MV4-11, using the following assay:
(§2) Test compounds were made up to 10 mM stock solution in DMSO
(§3) Leukemia cells (THP-1, EOL-1 and MV4-11) were grown in a cell culture flask 75 cm^2 with approximately 100 ml complete cell medium. The cells were counted using a Scepter-hand held automated cell counter, using 60 μm sensors (Millipore) and suspended in complete cell medium to 2×10^5 cells. 100 μl of the cell suspension were seeded to all wells (2×10^4 cells/well).
(§4) The compounds were tested in twelve concentrations, 10-fold serial dilutions, 50 μM-5×10^−10 μM.
(§5) 100 μl from a compound dilution plate were transferred to the cell assay plate=200 μl/well total volume and incubated for 5 days, at 37° C., 5% CO2 incubator.
(§6) After 5 days, 10l of KIT-8 was added and the culture was incubated for 3-4 hours, at 37° C., 5% CO2 incubator.
(§7) Plate were read in the spectrophotometer at wavelength 450 nm with a reference filter of 620 nm.
(§8) CC50 values are calculated by plotting the degree of inhibition (compared to the vehicle ctrl) against the logarithm of the compound concentration. Result values in the dilution series are fitted to a 4-parameter sigmoidal dose-response curve described by the expression: F(x)=D+(A−D)/(1+(x/C)^B) where: • A=Minimum • B=Slope. • C=Inflection point. The inflection point is defined as the point on the curve where the curvature changes direction or signs. • D=Maximum • F=fraction inhibition

[2] = test system: THP-1 (human acute monocytic leukemia); experiment: Leukemia cell line activity assay (Cell Counting Kit-8, 5 days), THP-1
Procedure: as §1, §2, §3, §4, §5, §6, §7, §8

[3] = test system: EOL-1 (human); experiment: Leukemia cell line activity assay (Cell Counting Kit-8, 5 days), EOL-1; conditions: read-out: EOL.1 CC50
Procedure: as §1, §2, §3, §4, §5, §6, §7, §8

[4] = Homo sapiens, MV4-11, 120 h, read-out: MV4-11 CC50, MV4-11 cells, 5 days incubation
[5] = Homo sapiens, THP-1, 120 h, read-out: THP-1 CC50, THP-1 cells, 5 days incubation
[6] = read-out: THP-1 CC50, THP-1 cells, 5 days incubation
[7] = read-out: MV4-11 CC50, MV4-11 cells, 5 days incubation

| Molecule | CC50 [1, 4] [nM] | CC50 [2, 5] [nM] | also measured |
| --- | --- | --- | --- |
| CCCC(=O)OCC1(CO[P@@](=O)(N[C@@H](C)C(=O)O[C@@H](C)CCC)Oc2ccccc2)C/C1=C/n1ccc(N)nc1=O (single isomer, unassigned) [Example 29-1] | 1200 | 710 |  |
| CCCC(CCC)COC(=O)[C@H](C)N[P@](=O)(OCC1(COC(=O)C(C)C)C/C1=C/n1ccc(N)nc1=O)Oc1ccccc1 (single isomer, unassigned) [Example 16-1] | 190 | 350 |  |
| CCC(CC)COC(=O)[C@H](CC(C)C)N[P@](=O)(OCC1(COC(=O)C(C)C)C/C1=C/n1cnc2c(=O)[nH]c(N)nc21)Oc1ccccc1 (single isomer, unassigned) [Example 21-2] | 510 | 390 |  |
| CCC(CC)COC(=O)[C@H](Cc1ccccc1)N[P@](=O)(OCC1(COC(=O)C(C)C)C/C1=C/n1cnc2c(=O)[nH]c(N)nc21)Oc1ccccc1 (single isomer, unassigned) [Example 20-2] | 380 | 900 | CC50 ([3]; Homo sapiens, EOL1, 120 h): 3600 nM |
| CCCC(CCC)COC(=O)[C@H](C)N[P@](=O)(OC[C@@]1(COC(C)=O)C/C1=C/n1cnc2c(=O)[nH]c(N)nc21)Oc1ccccc1 [Example 13-1, (S)-2-propylpentyl 2-(((S)-(((S,Z)-1-(acetoxymethyl)-2-((2-amino-6-oxo-1H-purin-9(6H)-yl)methylene)cyclopropyl)methoxy)(phenoxy)phosphoryl)amino)propanoate] | 1100 | 870 |  |
| (S)-(S)-Pentan-2-yl 2-(((S)-(((S,Z)-1-(acetoxymethyl)-2-((2-amino-6-oxo-1H-purin-9(6H)-yl)methylene)cyclopropyl)methoxy)(4-bromophenoxy)phosphoryl)amino) [Example 8-1] |  |  | CC50 ([3]; EOL-1 cells, 5 days incubation): 340 nM; CC50 [2, 6]: 260 nM |
| CCCC(=O)OC[C@]1(CO[P@@](=O)(N[C@@H](C)C(=O)OCC(CCC)CCC)Oc2ccccc2)C/C1=C/n1cnc2c(=O)[nH]c(N)nc21 [Example 11-1, ((S,Z)-2-((2-Amino-6-oxo-1H-purin-9(6H)-yl)methylene)-1-((((S)-(((S)-1-oxo-1-((2-propylpentyl)oxy)propan-2-yl)amino)(phenoxy)phosphoryl)oxy)methyl)cyclopropyl)methyl butyrate] | 71 | 190 | CC50 ([3]; Homo sapiens, EOL1, 120 h): 140 nM |
| CCC[C@H](C)OC(=O)[C@H](C)N[P@](=O)(OCC1(COC(=O)C(C)C)C/C1=C/n1ccc(N)nc1=O)Oc1ccccc1 (single isomer, unassigned) [Example 28-2] | 1000 | 880 |  |
| CCC(CC)COC(=O)[C@H](Cc1ccccc1)N[P@](=O)(OCC1(COC(=O)[C@@H](N)C(C)C)C/C1=C/n1cnc2c(=O)[nH]c(N)nc21)Oc1ccccc1 (stereo partly drawn) [Example 23, ((Z)-2-((2-amino-6-oxo-1,6-dihydro-9H-purin-9-yl)methylene)-1-((((S)-(((S)-1-(2-ethylbutoxy)-1-oxo-3-phenylpropan-2-yl)amino)(phenoxy)phosphoryl)oxy)methyl)cyclopropyl)methyl L-valinate] | 850 | 2400 |  |
| CCCC(CCC)COC(=O)[C@H](C)N[P@](=O)(OCC1(COC(=O)C(C)C)C/C1=C/n1cc(F)c(N)nc1=O)Oc1ccccc1 (single isomer, unassigned) [Example 39-2] | 2600 | 600 |  |
| CCCCCCCCCCCCCCCCCC(=O)OCC1(CO[P@@](=O)(N[C@@H](C)C(=O)O[C@@H](C)CCC)Oc2ccccc2)C/C1=C/n1cnc2c(=O)[nH]c(N)nc21 (stereo partly drawn) [Example 24, ((Z)-2-((2-amino-6-oxo-1,6-dihydro-9H-purin-9-yl)methylene)-1-((((S)-(((S)-1-oxo-1-(((S)-pentan-2-yl)oxy)propan-2-yl)amino)(phenoxy)phosphoryl)oxy)methyl)cyclopropyl)methyl stearate] | 2100 | 3800 |  |
| CCCC(=O)OCC1(CO[P@@](=O)(N[C@@H](C)C(=O)OCC(CCC)CCC)Oc2ccccc2)C/C1=C/n1ccc(N)nc1=O (single isomer, unassigned) [Example 32-1] |  |  | CC50 ([3]; Homo sapiens, EOL1, 120 h): 59 nM; CC50 [1, 7]: 180 nM; CC50 [2, 6]: 190 nM |
| Nc1nc2c(ncn2/C=C2/CC2(CO)CO)c(=O)[nH]1 [Cyclopropavir, 2,2-bis-(hydroxymethyl) cyclopropylidene methyl guanine, reference compound] |  |  | CC50 ([3]; Homo sapiens, EOL1, 120 h): 11000 nM; CC50 ([1]; Homo sapiens, MV4-11, 120 h, read-out: MV4-11 CC50): 11000 nM; CC50 ([2]; Homo sapiens, THP-1, 120 h, read-out: THP-1 CC50): 5100 nM |
| CCC(CC)COC(=O)[C@H](Cc1ccccc1)N[P@](=O)(OCC1(COC(=O)C(C)C)C/C1=C/n1ccc(N)nc1=O)Oc1ccccc1 (stereo partly drawn) [Example 25-2, 2-ethylbutyl((S)-(((Z)-2-((4-amino-2-oxopyrimidin-1 (2H)-yl)methylene)-1-((isobutyryloxy)methyl)cyclopropyl)methoxy)(phenoxy)phosphoryl)-L-phenylalaninate] |  |  | CC50 ([3]; EOL-1 cells, 5 days incubation): 100 nM; CC50 [1, 7]: 86 nM; CC50 [2, 6]: 410 nM |
| CCCC(=O)OC[C@]1(CO[P@@](=O)(N[C@@H](C)C(=O)O[C@@H](C)CCC)Oc2ccc(Br)cc2)C/C1=C/n1cnc2c(=O)[nH]c(N)nc21 [Example 12-1, ((S,Z)-2-((2-Amino-6-oxo-1H-purin-9(6H)-yl)methylene)-1-((((S)-(4-bromophenoxy)(((S)-1-oxo-1-((S)-pentan-2-yloxy)propan-2-yl)amino)phosphoryl)oxy)methyl)cyclopropyl)methyl butyrate] |  | 290 | CC50 ([3]; Homo sapiens, EOL1, 120 h): 170 nM |
| CCC[C@H](C)OC(=O)[C@H](C)N[P@](=O)(OC[C@@]1(COC(=O)[C@@H](N)C(C)C)C/C1=C/n1cnc2c(=O)[nH]c(N)nc21)Oc1ccccc1 [Example 15-1, (S)-((S,Z)-2-((2-amino-6-oxo-1H-purin-9(6H)-yl)methylene)-1-((((S)-(((S)-1-oxo-1-((S)-pentan-2-yloxy)propan-2-yl)amino)(phenoxy)phosphoryl)oxy)methyl)cyclopropyl)methyl 2-amino-3-methylbutanoate] |  | 1000 |  |
| CCCC(=O)OCC1(CO[P@@](=O)(N[C@@H](C)C(=O)OCC(CCC)CCC)Oc2ccccc2)C/C1=C/n1ccc(N)nc1=O (single isomer, unassigned) [Example 45-2] |  |  | CC50 [1, 7]: 2200 nM; CC50 [2, 6]: 2000 nM |
| CCC(CC)COC(=O)C[C@H](N[P@](=O)(OCC1(COC(=O)C(C)C)C/C1=C/n1cnc2c(=O)[nH]c(N)nc21)Oc1ccccc1)C(=O)OCC(CC)CC (single isomer, unassigned) [Example 35-1] | 180 | 290 |  |
| COC(=O)[C@H](CC(C)C)N[P@](=O)(OCC1(COC(=O)C(C)C)C/C1=C/n1cnc2c(=O)[nH]c(N)nc21)Oc1ccccc1 (single isomer, unassigned) [Example 18-2] | 800 | 1800 |  |
| CCCC(=O)OCC1(CO[P@@](=O)(N[C@@H](C)C(=O)OCC(CCC)CCC)Oc2ccccc2)C/C1=C/n1cc(F)c(N)nc1=O (stereo partly drawn) [Example 40, ((Z)-2-((4-amino-5-fluoro-2-oxopyrimidin-1(2H)-yl)methylene)-1-((((S)-(((S)-1-oxo-1-((2-propylpentyl)oxy)propan-2-yl)amino)(phenoxy)phosphoryl)oxy)methyl)cyclopropyl)methyl butyrate] | 3100 |  |  |

From patent publication US12221459B2, “Cancer treatment with (2,2-bishydroxymethyl) methylenecyclopropane nucleotides” (MEDIVIR AB, priority 2018, dated 2025)
